Test results: the kinase profiling compilation of Christmann-Franck et al. (2016)

Key:
Assay in all cases: radiometric filter-binding kinase assay, Kinase HotSpot
Conditions in all cases: compound 0.5 µM; ATP 10 µM
[1] = molecular target: ULK3 (human) (UniProt Q6PHR2)
[2] = molecular target: PRKACG (human) (UniProt P22612)
[3] = molecular target: STK38 (human) (UniProt Q15208)
Chain of STK38 (human) (Q15208 whole entry, looked up): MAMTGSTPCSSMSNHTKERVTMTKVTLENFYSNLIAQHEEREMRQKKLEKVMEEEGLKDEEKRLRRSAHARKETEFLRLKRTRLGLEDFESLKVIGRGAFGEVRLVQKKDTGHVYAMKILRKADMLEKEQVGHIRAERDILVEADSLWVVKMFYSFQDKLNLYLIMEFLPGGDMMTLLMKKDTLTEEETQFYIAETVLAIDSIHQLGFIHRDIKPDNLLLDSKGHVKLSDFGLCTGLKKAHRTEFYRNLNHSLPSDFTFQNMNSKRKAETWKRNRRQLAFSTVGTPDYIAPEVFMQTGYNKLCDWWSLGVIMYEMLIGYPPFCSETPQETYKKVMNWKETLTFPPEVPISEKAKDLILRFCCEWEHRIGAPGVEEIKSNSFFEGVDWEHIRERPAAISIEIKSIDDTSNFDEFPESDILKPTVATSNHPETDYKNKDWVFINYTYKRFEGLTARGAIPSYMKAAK

Chain of PRKACG (human) (P22612 whole entry, looked up): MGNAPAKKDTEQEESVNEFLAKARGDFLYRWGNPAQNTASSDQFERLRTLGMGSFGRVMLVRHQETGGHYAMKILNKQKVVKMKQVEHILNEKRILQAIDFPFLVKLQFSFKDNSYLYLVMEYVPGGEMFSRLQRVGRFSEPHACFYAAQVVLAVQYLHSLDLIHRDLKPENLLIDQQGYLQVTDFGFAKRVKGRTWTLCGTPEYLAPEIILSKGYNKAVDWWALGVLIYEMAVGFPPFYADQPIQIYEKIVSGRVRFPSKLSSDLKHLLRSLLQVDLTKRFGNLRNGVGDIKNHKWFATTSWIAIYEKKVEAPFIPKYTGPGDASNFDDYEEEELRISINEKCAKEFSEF
Chain of ULK3 (human) (Q6PHR2 whole entry, looked up): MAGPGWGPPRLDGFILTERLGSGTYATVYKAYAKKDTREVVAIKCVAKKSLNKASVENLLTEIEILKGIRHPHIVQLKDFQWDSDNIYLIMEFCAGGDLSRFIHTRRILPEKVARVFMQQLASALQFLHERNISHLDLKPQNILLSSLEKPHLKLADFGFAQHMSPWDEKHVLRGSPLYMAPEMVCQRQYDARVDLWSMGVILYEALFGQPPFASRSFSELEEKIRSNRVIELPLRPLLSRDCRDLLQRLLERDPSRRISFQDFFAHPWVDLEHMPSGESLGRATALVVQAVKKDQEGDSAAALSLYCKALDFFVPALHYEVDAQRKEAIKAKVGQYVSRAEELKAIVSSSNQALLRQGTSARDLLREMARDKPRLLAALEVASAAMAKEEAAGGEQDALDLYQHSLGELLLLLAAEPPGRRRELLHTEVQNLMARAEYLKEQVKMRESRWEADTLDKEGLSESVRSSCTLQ

Structure (SMILES) | residual activity [1] [%] | residual activity [2] [%] | residual activity [3] [%]
Cc1cncc2cccc(S(=O)(=O)N3CCCN(C(=O)CN)C[C@H]3C)c12 | 83.2 | 112 | 97.1
N#C/C(=C\c1ccc(O)c(O)c1)C(=O)NCc1ccccc1 | 71.2 | 90.7 | 99.1
c1ccc2c(-c3ccncc3)c[nH]c2c1 | 83 | 107 | 109
COc1cc(Nc2c(C#N)cnc3cc(OCCCN4CCN(C)CC4)c(OC)cc23)c(Cl)cc1Cl | 100 | 99.2 | 85.1
COc1cc2ncnc(Nc3ccc(Oc4ccccc4)cc3)c2cc1OC | 94.7 | 137 | 105
CO[C@@H]1[C@H](N(C)C(=O)c2ccccc2)C[C@H]2O[C@]1(C)n1c3ccccc3c3c4c(c5c6ccccc6n2c5c31)C(=O)NC4 | 37 | 58.1 | 83.8
N#Cc1c[nH]c2c[nH]/c(=N\Cc3cccnc3)cc2/c1=N\c1ccc(F)c(Cl)c1 | 72 | 115 | 93.9
O=C1Nc2ccc(Br)cc2/C1=C\c1cc2c([nH]1)CCCC2 | 55.5 | 98.1 | 80.1
CS(=O)(=O)CCNCc1ccc(-c2ccc3ncnc(Nc4ccc(OCc5cccc(F)c5)c(Cl)c4)c3c2)o1 | 106 | 110 | 101
COc1ccc2c(c1)/C(=C/c1cnc[nH]1)C(O)=N2 | 67.9 | 110 | 86.2
Cc1nc(-c2ccccc2)c(-c2ccncc2)o1 | 94.3 | 108 | 97.3
O=C1C(Cl)=C(N2C(=O)CCC2=O)C(=O)c2ccccc21 | 102 | 95.1 | 102
Fc1ccc(-c2nc3n(c2-c2ccncc2)CCS3)cc1 | 79.2 | 116 | 88
C[C@@H]1CCN(C(=O)CC#N)C[C@@H]1N(C)c1ncnc2[nH]ccc12 | 101 | 111 | 95.7
O=C1c2ccccc2-c2nc3nnnn3nc21 | 103 | 88.5 | 46.6
CN(C)S(=O)(=O)c1ccc2c(c1)/C(=C/c1cc3c([nH]1)CCCC3)C(=O)N2 | 26.3 | 114 | 94.6
COc1ccc(S(=O)(=O)N(CCO)c2ccccc2CN(C)C/C=C/c2ccc(Cl)cc2)cc1 | 106 | 104 | 98.3
Cc1cccc(-c2nc(C(C)(C)C)[nH]c2-c2ccc3c(c2)OCO3)n1 | 80.4 | 119 | 91.7
